From publication PMC12155096 (International Journal of Molecular Sciences, 2025) come the findings set out here.

One may read the AC50 as the midpoint of the concentration-response curve, whichever way the signal moves. Low values mean activity at low concentration, high ones activity only at high concentration.

Targets include human CYP2D6 (Homo sapiens, UniProt P10635); human CYP2C19 (Homo sapiens, UniProt P33261); human CYP2C9 (Homo sapiens, UniProt P11712); CYP3A4 (Homo sapiens, UniProt P08684).
In the next series the target is T1, human CYP1A2 (Homo sapiens, UniProt P05177).
T1 sequence (P05177 1-516): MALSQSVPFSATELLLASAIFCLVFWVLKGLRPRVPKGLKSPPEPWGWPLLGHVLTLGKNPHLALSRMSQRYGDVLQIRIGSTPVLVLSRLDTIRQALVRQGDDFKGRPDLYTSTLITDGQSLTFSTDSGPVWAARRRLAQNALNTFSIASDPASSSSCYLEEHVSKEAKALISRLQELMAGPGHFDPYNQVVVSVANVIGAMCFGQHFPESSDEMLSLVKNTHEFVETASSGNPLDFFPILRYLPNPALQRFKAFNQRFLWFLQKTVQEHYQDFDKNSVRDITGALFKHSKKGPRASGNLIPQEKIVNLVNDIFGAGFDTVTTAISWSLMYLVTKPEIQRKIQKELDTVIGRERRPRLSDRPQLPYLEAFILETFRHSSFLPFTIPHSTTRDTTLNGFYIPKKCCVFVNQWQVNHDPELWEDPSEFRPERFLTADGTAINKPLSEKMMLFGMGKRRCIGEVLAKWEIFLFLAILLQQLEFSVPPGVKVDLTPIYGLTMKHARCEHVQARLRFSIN

Chain of human CYP2C19 (P33261 whole entry): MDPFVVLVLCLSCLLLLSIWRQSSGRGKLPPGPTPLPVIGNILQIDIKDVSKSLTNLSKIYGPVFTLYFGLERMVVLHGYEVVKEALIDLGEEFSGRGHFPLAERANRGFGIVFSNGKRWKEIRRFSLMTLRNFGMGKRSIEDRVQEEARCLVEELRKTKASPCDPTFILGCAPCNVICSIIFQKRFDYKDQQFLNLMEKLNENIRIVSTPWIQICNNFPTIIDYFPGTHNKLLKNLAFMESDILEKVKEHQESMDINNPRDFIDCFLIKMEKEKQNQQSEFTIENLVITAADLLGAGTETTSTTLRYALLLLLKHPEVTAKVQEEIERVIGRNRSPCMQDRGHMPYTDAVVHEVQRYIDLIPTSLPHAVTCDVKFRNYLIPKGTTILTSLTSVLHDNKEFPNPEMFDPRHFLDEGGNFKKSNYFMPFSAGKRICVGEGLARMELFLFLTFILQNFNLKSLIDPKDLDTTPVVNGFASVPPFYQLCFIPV
Chain of CYP3A4 (P08684 whole entry): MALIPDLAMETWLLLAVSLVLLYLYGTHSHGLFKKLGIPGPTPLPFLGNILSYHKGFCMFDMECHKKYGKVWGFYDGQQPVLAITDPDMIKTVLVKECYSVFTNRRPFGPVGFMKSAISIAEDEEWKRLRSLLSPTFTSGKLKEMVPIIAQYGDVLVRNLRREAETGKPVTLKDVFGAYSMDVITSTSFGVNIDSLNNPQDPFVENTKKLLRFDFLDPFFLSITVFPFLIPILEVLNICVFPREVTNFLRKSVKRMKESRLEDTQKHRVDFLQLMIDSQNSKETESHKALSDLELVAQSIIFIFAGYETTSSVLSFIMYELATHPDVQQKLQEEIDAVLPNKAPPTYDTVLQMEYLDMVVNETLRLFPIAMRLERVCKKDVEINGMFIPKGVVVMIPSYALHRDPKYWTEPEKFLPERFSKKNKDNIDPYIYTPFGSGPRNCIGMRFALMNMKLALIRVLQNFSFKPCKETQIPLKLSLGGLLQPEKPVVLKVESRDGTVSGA
Chain of human CYP2D6 (P10635 whole entry): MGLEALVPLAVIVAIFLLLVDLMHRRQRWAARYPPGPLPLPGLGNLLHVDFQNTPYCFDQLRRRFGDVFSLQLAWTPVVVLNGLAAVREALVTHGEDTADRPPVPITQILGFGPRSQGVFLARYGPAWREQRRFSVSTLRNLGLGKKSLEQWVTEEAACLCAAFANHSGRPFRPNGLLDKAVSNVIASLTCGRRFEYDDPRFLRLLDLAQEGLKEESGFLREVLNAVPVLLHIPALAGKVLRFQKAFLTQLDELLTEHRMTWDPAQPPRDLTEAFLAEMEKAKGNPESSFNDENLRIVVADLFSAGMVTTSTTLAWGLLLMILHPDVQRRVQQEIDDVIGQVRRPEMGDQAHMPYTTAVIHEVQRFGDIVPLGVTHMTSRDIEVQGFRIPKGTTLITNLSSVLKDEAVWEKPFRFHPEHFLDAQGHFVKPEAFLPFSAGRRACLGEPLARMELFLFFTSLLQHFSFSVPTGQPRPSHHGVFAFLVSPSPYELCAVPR
Chain of human CYP2C9 (P11712 whole entry): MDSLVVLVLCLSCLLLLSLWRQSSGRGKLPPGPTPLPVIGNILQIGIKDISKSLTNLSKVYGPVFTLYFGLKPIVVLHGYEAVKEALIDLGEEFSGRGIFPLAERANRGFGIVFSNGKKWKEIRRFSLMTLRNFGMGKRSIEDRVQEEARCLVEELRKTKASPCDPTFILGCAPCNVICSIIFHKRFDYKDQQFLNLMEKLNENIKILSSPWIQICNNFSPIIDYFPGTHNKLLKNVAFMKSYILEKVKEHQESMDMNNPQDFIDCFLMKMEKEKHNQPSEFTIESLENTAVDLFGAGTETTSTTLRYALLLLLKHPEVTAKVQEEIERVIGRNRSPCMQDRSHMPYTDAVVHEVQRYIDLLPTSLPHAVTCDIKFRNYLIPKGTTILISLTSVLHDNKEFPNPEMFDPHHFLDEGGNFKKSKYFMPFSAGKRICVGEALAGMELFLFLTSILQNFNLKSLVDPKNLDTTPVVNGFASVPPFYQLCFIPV

On to `COCC(=O)N(c1c(C)cccc1C)[C@H](C)C(=O)OC` [Metalaxyl-M], for which the “CYP2D6 AC50 (half-maximal activity concentration)” value (“CYP2D6 AC50” for short) on human CYP2D6 is recorded as “Inactive”. Besides, the “CYP2C19 AC50 (half-maximal activity concentration)” value (“CYP2C19 AC50” for short) at human CYP2C19 was “Inconclusive inhibitor”. The “CYP2C9 AC50 (half-maximal activity concentration)” value (“CYP2C9 AC50” below) at human CYP2C9 is reported as “Inactive”. Besides, the AC50 on human CYP1A2 and on CYP3A4 was 47.7 µM each time.

As for `O=C(Nc1ccc([N+](=O)[O-])cc1)Nc1ccc([N+](=O)[O-])cc1` [4,4'-Dinitrodiphenylurea], on human CYP2D6, the “CYP2D6 AC50” value is “Inactive”. Besides, on human CYP2C19, the “CYP2C19 AC50” value is “Inactive”. Besides, on human CYP2C9, the “CYP2C9 AC50” value is recorded as “Inactive”. The “CYP1A2 AC50 (half-maximal activity concentration)” value (shortened to “CYP1A2 AC50”) on human CYP1A2 is on record as “Inactive”. The activity at CYP3A4 was half-maximal at 11 µM (AC50).

On to `O=[N+]([O-])c1ccc(Nc2ccc(Nc3ccccc3)c(S(=O)(=O)[O-])c2)c([N+](=O)[O-])c1.[Na+]` [C.I. Acid Orange 3], for which the “CYP2D6 AC50” value on human CYP2D6 is given as “Inactive”. Further, the “CYP2C19 AC50” value on human CYP2C19 was “Inconclusive inhibitor”. In addition, the results for the AC50 at human CYP2C9 and on CYP3A4 were 34.3 µM and 62.6 µM, respectively. The “CYP1A2 AC50” value on human CYP1A2 is listed as “Inactive”.

In the case of `O=C(c1ccc(O)c(O)c1)c1ccc(O)cc1O` [2,3',4,4'-Tetrahydroxybenzophenone], the half-maximal activity concentration (AC50) at human CYP2D6 was determined as 7.5 µM; at human CYP2C19 it was 33.2 µM; at human CYP2C9, 4.22 µM; on human CYP1A2 it was 34.3 µM; on CYP3A4, 18.4 µM.

Take `CC(=O)c1cc(C(C)(C)C)cc2c1CCC2(C)C`: at human CYP2D6, the “CYP2D6 AC50” value is reported as “Inactive”. For the same compound, the “CYP2C19 AC50” value at human CYP2C19 was “Inconclusive”. Moreover, the figures for the AC50 on human CYP2C9, at human CYP1A2 and at CYP3A4 were 27.6 µM, 34.4 µM and 10.5 µM, respectively.

Turning to `CCNS(=O)(=O)c1ccc(C)cc1` [N-Ethyl-4-methylbenzenesulfonamide], at human CYP2D6, the “CYP2D6 AC50” value is “Inconclusive inhibitor”. The AC50 stood at 25.9 µM on human CYP2C19, 32 µM on human CYP2C9 and 41.1 µM at human CYP1A2. For the same compound, the “CYP3A4 AC50 (half-maximal activity concentration)” value (“CYP3A4 AC50” for short) on CYP3A4 is “Inactive”.

On to `CN1C(=O)N(c2ccccc2Br)Cc2cnc(Nc3ccc4c(c3)OCC(CO)O4)nc21` (stereo not drawn) [PharmaGSID_48519], for which the concentration at half-maximal activity (AC50) at human CYP2D6 worked out at 56.6 µM; on human CYP2C19 it was 5.72 µM; at human CYP2C9 it was 12.2 µM; at human CYP1A2, 30.7 µM; at CYP3A4 it was 1.4 µM.

As for `CC(C)(C)c1ccc(C(=O)CCCCl)cc1` [4'-Tert-butyl-4-chlorobutyrophenone], on human CYP2D6, the “CYP2D6 AC50” value is on record as “Inactive”. Also, the “CYP2C19 AC50” value on human CYP2C19 is recorded as “Inactive”. Also, on human CYP2C9, the “CYP2C9 AC50” value is “Inactive”. Also, the AC50 at human CYP1A2 was determined as 12 µM; at CYP3A4 it was 21.9 µM.

`CCCCC(CC)C(=O)[O-].CCCCC(CC)C(=O)[O-].[Ba+2]` (stereo not drawn) [Barium bis(2-ethylhexanoate)]: the “CYP2D6 AC50” value at human CYP2D6 is “Inactive”. In addition, at human CYP2C19, the “CYP2C19 AC50” value is listed as “Inactive”. Besides, the “CYP2C9 AC50” value on human CYP2C9 is on record as “Inactive”. Moreover, the “CYP1A2 AC50” value on human CYP1A2 was “Inactive”. The compound further had an AC50 on CYP3A4 of 38.5 µM.

As to `CC(C)(c1ccc(Oc2ccc3c(c2)C(=O)OC3=O)cc1)c1ccc(Oc2ccc3c(c2)C(=O)OC3=O)cc1`, the values for the AC50 at human CYP2D6, at human CYP1A2 and on CYP3A4 were 37.9 µM, 63.2 µM and 23.4 µM, respectively. Also, the “CYP2C19 AC50” value on human CYP2C19 was “Inconclusive inhibitor”. On human CYP2C9, the “CYP2C9 AC50” value was “Inconclusive inhibitor”.

With `O=C1OC(=O)c2cc(Oc3ccc4c(c3)C(=O)OC4=O)ccc21` [5,5'-Oxybis(2-benzofuran-1,3-dione)], on human CYP2D6, the “CYP2D6 AC50” value is listed as “Inactive”. Besides, the “CYP2C19 AC50” value on human CYP2C19 is “Inconclusive inhibitor”. Besides, the “CYP2C9 AC50” value at human CYP2C9 is given as “Inactive”. In addition, on human CYP1A2, the “CYP1A2 AC50” value is reported as “Inactive”. In addition, half-maximal activity at CYP3A4 (AC50) was put at 30.8 µM.

As to `CCCCCC[C@@H](CCC)C(=O)O` [(2R)-2-Propyloctanoic acid], at human CYP2D6, the “CYP2D6 AC50” value is listed as “Inactive”. For the same compound, the “CYP2C19 AC50” value on human CYP2C19 was “Inconclusive activator”. For the same compound, the values for the AC50 on human CYP2C9 and on CYP3A4 were 34.7 µM and 31 µM, respectively. Further, the “CYP1A2 AC50” value on human CYP1A2 is on record as “Inactive”.

On to `O=C1NC(=O)c2cccc3cccc1c23` [1H-Benzo[de]isoquinoline-1,3(2H)-dione], for which the “CYP2D6 AC50” value at human CYP2D6 was “Inactive”. The “CYP2C19 AC50” value at human CYP2C19 was “Inconclusive inhibitor”. The figures for the AC50 on human CYP2C9 and at human CYP1A2 were 33.1 µM and 2.74 µM, respectively. Further, the “CYP3A4 AC50” value on CYP3A4 is given as “Inconclusive activator”.

As for `O=C(O)CC(C(=O)O)S(=O)(=O)O` (stereo not drawn) [Sulfosuccinic acid], the AC50 at human CYP2D6 is 60.6 µM; on human CYP2C19, 11.9 µM; on human CYP1A2, 33 µM; on CYP3A4, 43.2 µM. In addition, the “CYP2C9 AC50” value at human CYP2C9 is given as “Inactive”.

In the case of `CCOC(=O)C1=NOC(c2ccccc2)(c2ccccc2)C1` [Isoxadifen-ethyl], the “CYP2D6 AC50” value at human CYP2D6 is recorded as “Inconclusive activator”. Further, the figures for the concentration at half-maximal activity (AC50) at human CYP2C19, on human CYP2C9 and at CYP3A4 were 21.6 µM, 8.36 µM and 34.3 µM, respectively. In addition, the “CYP1A2 AC50” value on human CYP1A2 is on record as “Inconclusive inhibitor”.

In the case of `CCCCCCCCS(=O)(=O)[O-].[Na+]` [Sodium 1-octanesulfonate], the “CYP2D6 AC50” value at human CYP2D6 is “Inactive”. For the same compound, on human CYP2C19, the “CYP2C19 AC50” value is on record as “Inactive”. Moreover, the AC50 was 44.1 µM on human CYP2C9 and 33.1 µM at CYP3A4. Also, at human CYP1A2, the “CYP1A2 AC50” value was “Inactive”.

For the compound `COC(OC)(C(=O)c1ccccc1)c1ccccc1` [2,2-Dimethoxy-1,2-diphenylethanone], the concentration at half-maximal activity (AC50) came to 34.6 µM on human CYP2D6, 15.9 µM on human CYP2C19, 22.5 µM at human CYP2C9 and 10.2 µM at CYP3A4. Further, the “CYP1A2 AC50” value at human CYP1A2 is “Inactive”.

Turning to `O=C([O-])CCCOc1ccc(Cl)cc1Cl.[Na+]` [2,4-DB-sodium], the “CYP2D6 AC50” value at human CYP2D6 is given as “Inactive”. The “CYP2C19 AC50” value on human CYP2C19 is “Inconclusive inhibitor”. Also, the AC50 at human CYP2C9 amounted to 60.6 µM; on CYP3A4, 46.2 µM. Further, the “CYP1A2 AC50” value on human CYP1A2 was “Inactive”.

In the case of `Cc1ccc([N+](=O)[O-])c(N)c1` [5-Methyl-2-nitroaniline], the “CYP2D6 AC50” value at human CYP2D6 was “Inactive”. Moreover, the half-maximal activity concentration (AC50) at human CYP2C19 came out at 39.6 µM; on human CYP2C9 it was 49.9 µM; on human CYP1A2, 19.2 µM; on CYP3A4, 13.9 µM.

Take `CC(=O)[O-].CC(=O)[O-].CC(=O)[O-].[Cr+3]` [Chromium(III) acetate]: at human CYP2D6, the “CYP2D6 AC50” value is reported as “Inactive”. Moreover, at human CYP2C19, the “CYP2C19 AC50” value is given as “Inactive”. Moreover, the figures for the AC50 at human CYP2C9 and on CYP3A4 were 96.3 µM and 69.6 µM, respectively. The “CYP1A2 AC50” value at human CYP1A2 was “Inactive”.

`Clc1cnc(Oc2ccc(Oc3ncc(Cl)cc3Cl)cc2)c(Cl)c1`: the “CYP2D6 AC50” value on human CYP2D6 is given as “Inactive”. On human CYP2C19, the “CYP2C19 AC50” value is recorded as “Inactive”. At human CYP2C9, this compound yielded a concentration at half-maximal activity (AC50) of 2.34 µM. The “CYP1A2 AC50” value at human CYP1A2 is “Inactive”. Besides, the “CYP3A4 AC50” value at CYP3A4 is reported as “Inconclusive activator”.
